From patent US20240050435A1, “METHODS FOR TREATING CANCER” (Washington University, priority 2022, published 2024)

Legend:
ATR = ATR (Homo sapiens, UniProt Q13535); settings: cited from earlier work
[1] = test system: TP53-mutant hematopoietic stem cells (HSCs); assay: Mixed bone marrow chimeras (wildtype and R172H TP53 bone marrow); format: in vivo; settings: mice with mixed wildtype / R172H TP53 bone marrow chimeras
Text: To assess the impact of combination treatment on TP53-mutant hematopoietic stem cells (HSCs), mixed bone marrow chimeras transplanted with both wildtype and R172H TP53 bone marrow were established as illustrated in FIG. 13.

Chain of ATR (Q13535 whole entry): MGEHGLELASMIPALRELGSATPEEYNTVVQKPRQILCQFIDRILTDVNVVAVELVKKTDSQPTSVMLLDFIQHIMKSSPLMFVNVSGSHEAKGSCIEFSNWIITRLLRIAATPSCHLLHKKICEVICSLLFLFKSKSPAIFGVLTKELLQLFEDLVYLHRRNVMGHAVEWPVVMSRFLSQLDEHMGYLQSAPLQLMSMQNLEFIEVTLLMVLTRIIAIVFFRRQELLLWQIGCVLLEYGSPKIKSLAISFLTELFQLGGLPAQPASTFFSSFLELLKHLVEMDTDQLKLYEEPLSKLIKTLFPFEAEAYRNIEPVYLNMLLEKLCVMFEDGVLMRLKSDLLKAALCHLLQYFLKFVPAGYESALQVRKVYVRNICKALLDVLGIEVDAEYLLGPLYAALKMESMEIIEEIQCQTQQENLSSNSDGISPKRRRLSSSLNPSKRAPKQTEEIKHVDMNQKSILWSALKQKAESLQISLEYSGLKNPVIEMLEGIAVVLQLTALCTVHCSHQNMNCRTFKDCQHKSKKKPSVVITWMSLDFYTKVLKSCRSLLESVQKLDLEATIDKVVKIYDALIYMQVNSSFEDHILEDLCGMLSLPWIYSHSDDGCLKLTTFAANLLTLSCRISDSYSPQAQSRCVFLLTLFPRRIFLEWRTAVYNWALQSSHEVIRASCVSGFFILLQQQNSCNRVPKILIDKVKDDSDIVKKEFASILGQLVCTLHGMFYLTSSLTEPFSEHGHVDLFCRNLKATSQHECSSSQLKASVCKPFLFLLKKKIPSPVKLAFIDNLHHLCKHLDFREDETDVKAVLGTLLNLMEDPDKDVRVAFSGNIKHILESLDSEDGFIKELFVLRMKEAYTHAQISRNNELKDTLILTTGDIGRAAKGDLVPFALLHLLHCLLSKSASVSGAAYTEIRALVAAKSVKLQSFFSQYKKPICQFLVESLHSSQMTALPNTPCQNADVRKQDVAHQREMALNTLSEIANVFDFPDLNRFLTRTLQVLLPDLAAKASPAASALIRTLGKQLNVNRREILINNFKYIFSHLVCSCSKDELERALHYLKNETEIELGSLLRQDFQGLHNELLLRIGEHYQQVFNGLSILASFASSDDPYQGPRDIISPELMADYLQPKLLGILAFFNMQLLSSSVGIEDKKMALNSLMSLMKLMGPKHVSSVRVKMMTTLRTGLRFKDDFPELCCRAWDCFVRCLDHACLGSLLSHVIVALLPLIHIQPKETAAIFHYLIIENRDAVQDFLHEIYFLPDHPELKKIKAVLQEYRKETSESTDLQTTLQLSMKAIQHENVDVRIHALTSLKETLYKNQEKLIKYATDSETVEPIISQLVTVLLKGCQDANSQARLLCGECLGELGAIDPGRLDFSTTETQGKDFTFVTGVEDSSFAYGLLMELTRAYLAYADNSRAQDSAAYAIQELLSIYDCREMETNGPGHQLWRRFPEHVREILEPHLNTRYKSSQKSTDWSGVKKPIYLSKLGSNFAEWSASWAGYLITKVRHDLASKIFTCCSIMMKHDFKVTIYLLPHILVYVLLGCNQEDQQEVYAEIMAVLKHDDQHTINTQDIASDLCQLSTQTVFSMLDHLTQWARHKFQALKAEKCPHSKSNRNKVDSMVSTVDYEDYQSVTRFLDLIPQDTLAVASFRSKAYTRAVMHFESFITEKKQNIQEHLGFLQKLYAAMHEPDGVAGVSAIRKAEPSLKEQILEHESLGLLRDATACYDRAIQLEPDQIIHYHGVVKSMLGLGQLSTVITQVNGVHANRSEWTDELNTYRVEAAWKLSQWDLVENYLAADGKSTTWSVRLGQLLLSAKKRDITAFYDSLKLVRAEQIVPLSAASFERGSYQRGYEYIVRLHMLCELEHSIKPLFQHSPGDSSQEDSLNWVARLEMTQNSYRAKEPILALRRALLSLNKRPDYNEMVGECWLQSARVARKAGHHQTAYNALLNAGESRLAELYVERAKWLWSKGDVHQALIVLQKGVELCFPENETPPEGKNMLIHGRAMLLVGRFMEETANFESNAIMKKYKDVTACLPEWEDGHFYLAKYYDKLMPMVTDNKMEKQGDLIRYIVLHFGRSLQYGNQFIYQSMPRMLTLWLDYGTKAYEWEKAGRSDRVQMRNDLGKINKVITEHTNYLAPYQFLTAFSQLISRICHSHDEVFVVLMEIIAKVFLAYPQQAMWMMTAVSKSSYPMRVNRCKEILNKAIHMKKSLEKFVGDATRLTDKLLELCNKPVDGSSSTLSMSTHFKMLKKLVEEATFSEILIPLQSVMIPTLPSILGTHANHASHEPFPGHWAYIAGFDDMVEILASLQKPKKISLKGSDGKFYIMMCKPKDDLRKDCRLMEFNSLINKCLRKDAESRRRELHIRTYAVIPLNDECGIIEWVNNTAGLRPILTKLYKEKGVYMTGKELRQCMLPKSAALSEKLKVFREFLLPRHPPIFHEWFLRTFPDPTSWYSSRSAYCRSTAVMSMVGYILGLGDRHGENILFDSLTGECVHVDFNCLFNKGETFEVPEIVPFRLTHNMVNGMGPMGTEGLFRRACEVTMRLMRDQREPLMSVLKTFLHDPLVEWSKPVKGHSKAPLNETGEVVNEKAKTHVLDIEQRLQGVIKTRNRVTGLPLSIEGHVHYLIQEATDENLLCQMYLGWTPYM
Chain of ATR (Q8WXE1 whole entry partner): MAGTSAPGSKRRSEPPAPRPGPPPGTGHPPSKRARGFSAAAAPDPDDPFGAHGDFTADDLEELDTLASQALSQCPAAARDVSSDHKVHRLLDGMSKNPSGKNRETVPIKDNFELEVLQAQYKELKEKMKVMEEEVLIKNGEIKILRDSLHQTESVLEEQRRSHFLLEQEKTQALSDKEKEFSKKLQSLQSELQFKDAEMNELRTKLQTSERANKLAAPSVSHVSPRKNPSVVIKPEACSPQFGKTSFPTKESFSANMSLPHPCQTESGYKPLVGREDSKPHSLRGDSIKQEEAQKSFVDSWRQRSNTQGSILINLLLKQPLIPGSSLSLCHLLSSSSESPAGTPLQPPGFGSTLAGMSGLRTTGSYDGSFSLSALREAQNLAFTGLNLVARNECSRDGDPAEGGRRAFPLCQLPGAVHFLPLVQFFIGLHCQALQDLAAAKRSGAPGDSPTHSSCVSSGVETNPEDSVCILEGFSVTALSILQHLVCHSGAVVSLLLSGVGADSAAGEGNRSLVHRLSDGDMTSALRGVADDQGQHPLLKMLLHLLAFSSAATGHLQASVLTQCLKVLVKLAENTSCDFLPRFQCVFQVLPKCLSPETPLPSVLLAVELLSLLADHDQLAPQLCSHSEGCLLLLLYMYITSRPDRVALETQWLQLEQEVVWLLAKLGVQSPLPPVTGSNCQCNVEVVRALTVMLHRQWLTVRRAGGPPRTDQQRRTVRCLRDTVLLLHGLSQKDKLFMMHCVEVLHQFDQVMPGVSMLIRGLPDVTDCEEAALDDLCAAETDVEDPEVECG

Row | SMILES | inhibition of ATR signaling (ATR) | effect on TP53-mutant HSCs [1]
1 | Cn1cncc1-c1c(F)cncc1NC(=O)c1c(N)nn2cc(F)cnc12 [M1774] | potent and specific inhibitor of ATR signaling | –
2 | N.N.[Cl][Pt][Cl] [cis-platinum] | – | significant expansion of TP53-mutant HSCs
